Assay results taken from US20240398774A1, “METHODS OF TREATING INFLAMMATORY DISEASES WITH A SELECTIVE GLUCOCORTICOID RECEPTOR MODULATOR” (ASTRAZENECA AB, priority 2021, published 2024).
Each block holds one molecule with its values, some of them ahead of it.

How the values were obtained:
[1] = test system: hypothalamic-pituitary-adrenal (HPA) axis; experiment: morning serum cortisol and adrenocorticotropic hormone in type 2 diabetes patients; assay type: in vivo, human
Description: (§1) Study design. This was a randomized, double blind, multi-center, double dummy, and two-way cross-over study. The aim of the study was to compare the effect on glycaemic control and incretin response at equipotent doses of AZD9567 and prednisolone in diabetes patients. The AZD9567 and prednisolone doses were predicted to be equipotent, based on an ex vivo efficacy analysis from previous phase 1 studies. The study consisted of a total of three cohorts. Each cohort was treated for two 72-hour periods in a cross-over design, with a 3-week washout period between treatment periods as illustrated in FIG. 1. The total length of participant engagement (from screening to follow-up) is 79 days.
Cohort 1 included 27 patients. The patents were randomized in a ratio of 1:1 to receive 72 mg/day (oral suspension) AZD9567 and 40 mg/day prednisolone over two 72 hour periods in a cross over design: 72 mg AZD9567 for 3 consecutive days of each treatment period followed by 40 mg prednisolone for 3 consecutive days of each treatment period [AB sequence group], or 40 mg prednisolone for 3 consecutive days of each treatment period followed by 72 mg AZD9567 for 3 consecutive days of each treatment period [BA sequence group]. […]

[2] = test system: lipopolysaccharide (LPS)-stimulated tumour necrosis factor-α (TNFα) release; experiment: ex vivo inhibition of LPS-stimulated TNFα release in human whole blood; assay type: cell-based; details: compared with prednisolone
[3] = safety and clinical outcomes in patients; assay type: in vivo, human
[4] = test system: transcription of tyrosine aminotransferase (TAT); experiment: TAT transcription in human hepatocytes in vitro; assay type: cell-based; details: for upregulation of transcription of tyrosine aminotransferase (TAT): human hepatocytes in vitro
[5] = Mixed Meal Tolerance Test (MMTT) in type 2 diabetes patients, clinical trial NCT04556760; assay type: in vivo, human; details: for MMTT-stimulated insulin secretion / glucagon secretion after MMTT: Cohort 1, Day 4
Description: (§2) Patient population. In clinical trial NCT04556760, eligible patients were 18 to 75 years old. Eligible patients had diagnosis of type 2 diabetes mellitus for 6 months prior to screening, such as HbAlc in the diabetes range or fasting plasma glucose 126-220 mg/dL. Eligible patients were on stable metformin therapy for at least 4 weeks, where no significant dose change (increase or decrease≥500 mg/day) has occurred prior to screening and HbAlc 6%-9.5%, or on dual therapy with metformin in combination with SGLT2i or DPP4i and HbAlc 6%-8%. Participants on dual therapy required 2 weeks wash-out of SGLT2i or DPP4i.
as §1
(§3) Cohort 1 included 27 patients. The patents were randomized in a ratio of 1:1 to receive 72 mg/day (oral suspension) AZD9567 and 40 mg/day prednisolone over two 72 hour periods in a cross over design: 72 mg AZD9567 for 3 consecutive days of each treatment period followed by 40 mg prednisolone for 3 consecutive days of each treatment period [AB sequence group], or 40 mg prednisolone for 3 consecutive days of each treatment period followed by 72 mg AZD9567 for 3 consecutive days of each treatment period [BA sequence group].
MMTT provides a fixed composition of protein, carbohydrates and fat, and is meant to mimic “normal” meal. It generally consists of 30.2 g protein, 19.6 g of fat, 75 g of carbohydrates with 6.6. g of fiber, totaling 612 kCal. It requires a standardized dinner the night before the test, 12 h fasting prior to the test, and standardized breakfast consumed (<30 min) at 7 AM (solid meal) consisting of pre-determined quantities of carbohydrates, proteins and fats. Sampling is done at −15, 10, 20, 30, 60, 75, 120, 180, and 240 min.
The primary endpoint was change in glucose AUC (0-4 h) versus baseline compared to prednisolone following a standardized mixed meal tolerance test (MMTT) on Days −1, 4, 27, and 31. The change from baseline in glucose AUC (0-4 h) was analyzed using a mixed model repeated measures (MMRM) with baseline included as covariate. […]

joint inflammation = experiment: rat model of joint inflammation; assay type: in vivo; details: compared with prednisolone
[6] = plasma pharmacokinetics in diabetic patients; assay type: in vivo, human; details: oral dosing
Description: as §1, with “days. […]” for “days.”

[7] = Continuous Glucose Monitoring (CGM) in type 2 diabetes patients, clinical trial NCT04556760; assay type: in vivo, human
Description: as §2, §1, §3
Cohort 2 included 8 patients. The patents were randomized in a ratio of 1:1 to receive 40 mg/day (oral suspension) AZD9567 and prednisolone over two 72 hour periods in a cross over design: 40 mg AZD9567 for 3 consecutive days of each treatment period followed by 20 mg prednisolone for 3 consecutive days of each treatment period [AB sequence group] or 20 mg prednisolone for 3 consecutive days of each treatment period followed by 40 mg AZD9567 for 3 consecutive days of each treatment period [BA sequence group].
Cohort 3 included 9 patients. The patents were randomized in a ratio of 1:1 to receive placebo and 5 mg/day prednisolone over two 72 hour periods in a cross over design: placebo for 3 consecutive days of each treatment period followed by 5 mg prednisolone for 3 consecutive days of each treatment period [AB sequence group] or 5 mg prednisolone for 3 consecutive days of each treatment period followed by placebo for 3 consecutive days of each treatment period [BA sequence group]).
CGM includes a normal diet and is reflective of daily glucose control under “real world” conditions. […]

- effect on prednisolone-induced upregulation of TAT transcription ([4]; coadministered with prednisolone in primary human hepatocytes): dose-dependently reduces
- upregulation of transcription of tyrosine aminotransferase (TAT) [4]: does not upregulate
- elimination half-life in diabetic patients as compared to healthy volunteers in phase 1 study [6]: increased
- systemic exposure in diabetic patients as compared to healthy volunteers in phase 1 study [6]: higher
SMILES: CC(C)[C@H](NC(=O)C(C)(F)F)[C@H](Oc1ccc2c(cnn2-c2ccc(=O)n(C)c2)c1)c1ccccc1 [AZD9567, 2,2-difluoro-N-[(1R,2S)-3-methyl-1-[1-(1-methyl-6-oxopyridin-3-yl)indazol-5-yl]oxy-1-phenylbutan-2-yl]propanamide]
- adrenocorticotropic hormone (ACTH) concentrations ([1]; Cohort 1, change from baseline): indicative of preserved hypothalamic-pituitary-adrenal (HPA) axis capacity
- cortisol change during treatment ([1]; Cohort 1, returning to baseline at follow-up): marked, target-related, reversible cortisol suppression
- inhibition of LPS-stimulated TNFα release [2]: similar
- safety concerns following the analysis of Cohort 1 ([3]; Cohort 1, 72 mg/day for 3 days): No significant new safety concerns
- rate of treatment intensification (dose increase of current oral antidiabetic therapy, or start/addition of insulin) as compared to prednisone ([3]; diagnosed diabetic patients): lower rate
- incidence of hospitalization vs prednisone ([3]; heart failure patients): lower incidence
- incidence of progression to type 2 diabetes mellitus as compared to prednisone ([3]; population predisposed to type 2 diabetes mellitus): lower incidence
- difference in reduction of glucose AUC0-4h after MMTT (AZD9567 vs prednisolone) ([5]; Cohort 1, 24 h after last dose (Day 4), 95CI 0.01, 8.88, p=0.05): 4.54%
- MMTT-stimulated insulin secretion [5]: increased
- glucagon secretion after MMTT [5]: unaffected
- insulin:glucagon ratio ([5]; Cohort 1, MMTT, vs prednisolone): marked improvement
- absolute difference in reduction of glucose AUC0-4h after MMTT (AZD9567 vs prednisolone) ([5]; Cohort 1, 95% CI 9.40, 256.1, p=0.036): 132.95 mmol·min/L
- anti-inflammatory effects in vivo in a rat model of joint inflammation (joint inflammation): similar
- increase in mean daily glucose relative to glycaemic targets for type 2 diabetes patients (70-180 mg/dl) ([7]; Cohort 1, 72 mg/day): within glycaemic targets
- HbAlc difference corresponding to mean daily glucose difference between AZD9567 and prednisolone ([7]; Cohort 1, 48-72 h, based on estimated Average Glucose (eAG) equation): 0.7%
- mean daily glucose increase as compared to prednisolone ([7]; Cohort 1: 72 mg/day AZD9567 vs 40 mg/day prednisolone): significantly lower
- differentiation on glycaemic control versus prednisolone (CGM) ([7]; Cohort 1: 72 mg/day AZD9567 vs 40 mg/day prednisolone, 3 days): clear and consistent differentiation
- HbAlc difference corresponding to mean daily glucose difference between AZD9567 and prednisolone ([7]; Cohort 2, lower dose, based on eAG equation): 0.4%
- mean daily glucose increase as compared to prednisolone ([7]; Cohort 2: 40 mg/day AZD9567 vs 20 mg/day prednisolone): lower
- differentiation on glycaemic control versus prednisolone (CGM) ([7]; Cohort 2: 40 mg/day AZD9567 vs 20 mg/day prednisolone, relative to Cohort 1): lower
- observed difference in mean daily glucose (CGM) vs prednisolone ([7]; at 48-72 hrs, Target Value 1.221 mmol/L, Lower Reference Value 0.599 mmol/L): 1.507 mmol/L

- upregulation of transcription of tyrosine aminotransferase (TAT) [4]: upregulation
- systemic exposure in diabetic patients as compared to healthy volunteers in phase 1 study [6]: higher
SMILES: C[C@]12C=CC(=O)C=C1CC[C@@H]1[C@@H]2[C@@H](O)C[C@@]2(C)[C@H]1CC[C@]2(O)C(=O)CO [prednisolone, reference compound]
- MMTT-stimulated insulin secretion [5]: lower
- glucagon secretion after MMTT [5]: increased
- differentiation on glycaemic control vs placebo on CGM ([7]; Cohort 3: 5 mg/day prednisolone vs placebo): No differentiation
